Data from patent publication US12324814B2, “Manganese composition for enhancing immunity” (PEKING UNIVERSITY, priority 2019, dated 2025).

Assays:
melanoma B16-F10 = assay: Subcutaneous B16-F10 melanoma, manganese colloid with cyclophosphamide; type: in vivo, mice; conditions: 14 days after inoculation; colloid 5 mg/kg i.m. every two days; CTX 140 mg/kg i.p. day 6, 9, 12
[1] = test system: mouse peritoneal macrophages; type: cell-based
[2] = test system: inflammatory factors IL-1β and IL-18; type: cell-based, mouse
IL-1β = assay: Induction of inflammatory factor IL-1β by manganese products; type: cell-based; conditions: FIG. 2B
Method: Each of the products was tested.

[3] = 20 μg manganese i.m. in 100 μl saline
Method: The mice were randomly divided into 2 groups according to body weight, namely: intramuscular injection of MnCl2 solution group (20 μg MnCl2 dissolved in 100 μl saline), and intramuscular injection of manganese colloid group (20 μg manganese colloid suspended in 100 μl saline). 20 μg here refers to the mass of the element manganese. At different times after the injection, 0.1 g of the muscle at the injection site was taken, digested with a microwave digestion apparatus, and then the content of the element manganese was determined by ICP-MS (Thermo X SERIES II).

influenza virus = test system: influenza virus; design: species or system mice; conditions: mouse, in vivo
B16/OVA melanoma cells = assay: B16/OVA melanoma subcutaneous in situ tumor model after immunization; type: in vivo, mice; conditions: 21 days after tumor inoculation; immunized three times with OVA ± adjuvant
From the text: The mice were randomly divided into 4 groups according to body weight: blank control group (con), OVA control group, OVA and manganese colloid group (OVA+Mn), and OVA and aluminum adjuvant group (OVA+Al). After immunizing the mice three times according to the experimental scheme (once every 7 days), the B16/OVA melanoma cells were subcutaneously inoculated to establish an in situ tumor model. […] 21 days after tumor inoculation, the average tumor size of mice in the control group was 1906 mm^3, the average tumor size of mice in the OVA group was 925.5 mm^3, the average tumor size of mice immunized with manganese colloid was 222.9 mm^3, and the average tumor size of mice in the aluminum adjuvant group was 1946 mm^3, as shown in FIG. 14B.

B16-OVA tumor = assay: B16-OVA tail vein tumor metastasis model after immunization; type: in vivo, mice; conditions: 21 days after tumor injection
Method: Mn2OHPO4 colloid and aluminum adjuvant were mixed respectively with antigen OVA to immunize mice. Immunizations were performed 3 times with once every 7 days to activate the immune response in the body. B16-OVA tumor was injected into the tail vein to establish a tumor metastasis model. The mice were sacrificed 21 days after the tumor injection, and the lung tissues were taken out.

O=P1(N(CCCl)CCCl)NCCCO1 (stereo not shown) [CTX, cyclophosphamide monohydrate]
tumor size (melanoma B16-F10): 393.9 mm^3

[Cl][Mn][Cl] [MnCl2]
expression of type I interferon (ISG54, Viperin, total type I interferon in supernatant) [1]: can activate the expression of type I interferon
ability to activate inflammatory factors (caspase 1 and IL-1β cleavage, IL-1β and IL-18) [2]: significantly stronger than that of aluminum adjuvant
ability to activate inflammatory factors in NLRP3 knockout cells [2]: significantly lowered
ability to activate inflammatory factors, MnCl2 compared with manganese colloid (IL-1β): have the same ability to activate inflammatory factors
retention at the injection site (manganese content in muscle) [3]: quickly metabolized

CTB
inflammation in the lungs (influenza virus): a small amount of inflammation in lung
weight of the mice after influenza infection (influenza virus): recovered slightly after a slight weight loss

B1: OVA: ovalbumin antigen (InvivoGen, #vac-pova), given without adjuvant (protein, UniProt P01012 2-386, looked up)
Ovalbumin: GSIGAASMEFCFDVFKELKVHHANENIFYCPIAIMSALAMVYLGAKDSTRTQINKVVRFDKLPGFGDSIEAQCGTSVNVHSSLRDILNQITKPNDVYSFSLASRLYAEERYPILPEYLQCVKELYRGGLEPINFQTAADQARELINSWVESQTNGIIRNVLQPSSVDSQTAMVLVNAIVFKGLWEKAFKDEDTQAMPFRVTEQESKPVQMMYQIGLFRVASMASEKMKILELPFASGTMSMLVLLPDEVSGLEQLESIINFEKLTEWTSSNVMEERKIKVYLPRMKMEEKYNLTSVLMAMGITDVFSSSANLSGISSAESLKISQAVHAAHAEINEAGREVVGSAEAGVDAASVSEEFRADHPFLFCIKHIATNAVLFFGRCVSP
average tumor size (B16/OVA melanoma cells): 925.5 mm^3
melanomas on the lungs (B16-OVA tumor): a certain number of melanomas
